Reference: patent publication US7449447B2, “Peptidomimetic NS3-serine protease inhibitors of hepatitis C virus” (priority 2003, dated 2008)
pKi: −log10 of the molar value. *1 amine or outer side, *2 acyl side, *3 side chain or, on linkers, in order; H or OH if unused. Where a SMILES comes first, the peptide text is derived from it. [ ]: non-standard residue; d: D form. The star is where a group is joined. Pro(3R,4S-CMe2) = CC1(C)[C@@H]2[C@@H](C(=O)O)NC[C@@H]21; X1 = CN(C[C@@H](N*)C(C)(C)C)S(C)(=O)=O; Abu(4,4-F2) = N[C@@H](CC(F)F)C(=O)O; Phe(ol) = N[C@H](CO)Cc1ccccc1; Tle = CC(C)(C)[C@H](N)C(=O)O; CO = O=C([*:1])[*:2]

target: T1, HCV NS3/NS4a serine protease (Hepatitis C virus genotype 1b, UniProt P26663); assay: Spectrophotometric assay for HCV protease inhibitory activity (chromogenic ester substrates); type: biochemical, hepatitis C virus (strain 1b); conditions: Ki Rating, Table 2; single chain NS4A21-32-GSGS-NS3 3-181 protease, 30° C., pH 6.5
T1 construct: amino terminus of the NS3 protease domain (amino acids 3-181) with a tetrapeptide linker; made in house; host or cells: E. coli
Method: Spectrophotometric Assay: Spectrophotometric assays for the HCV serine protease were performed on the inventive compounds by following the procedure described by R. Zhang et al., Analytical Biochemistry, 270 (1999) 268-275, the disclosure of which is incorporated herein by reference. The assay based on the proteolysis of chromogenic ester substrates is suitable for the continuous monitoring of HCV NS3 protease activity.
HCV NS3 protease (strain 1b) and its NS4A cofactor were constructed as a recombinant single chain protein. The NS4A cofactor domain (amino acid residues 21-32) was fused in frame to the amino terminus of the NS3 protease domain (amino acids 3-181) with a tetrapeptide linker. This NS4A 21-32-GSGS-NS33-181 construct was then expressed in E. coli and purified to >90% homogeneity. Kinetic parameters were determined and found to be the same as that of the full length NS31-631/NS4A1-54 protein complex produced in the baculovirus system (D. L. Sali et al, Biochemistry, 37 (1998) 3392-340). The details of the cloning, expression, purification and kinetic analysis of the of the single chain recombinant protease have been previously described (S. S. Taremi, et al. Protein Science. 7 (1998) 2143-2149.
Protein concentrations were determined by the Biorad dye method using recombinant HCV protease standards previously quantified by amino acid analysis. Prior to assay initiation, the enzyme storage buffer (50 mM sodium phosphate pH 8.0, 300 mM NaCl, 10% glycerol, 0.05% lauryl maltoside and 10 mM DTT) was exchanged for the assay buffer (25 mM MOPS pH 6.5, 300 mM NaCl, 10% glycerol, 0.05% lauryl maltoside, 5 μM EDTA and 5 μM DTT) utilizing a Biorad Bio-Spin P-6 prepacked column.
Protease Assay: HCV protease assays were performed at 30° C. using a 200 μl reaction mix in a 96-well microtiter plate. Assay buffer conditions (25 mM MOPS pH 6.5, 300 mM NaCl, 10% glycerol, 0.05% lauryl maltoside, 5 μM EDTA and 5 μM DTT) were optimized for the NS3/NS4A heterodimer (D. L. Sali et al, ibid.)). Typically, 100 μl mixtures of buffer, substrate and inhibitor were placed in wells and allowed to preincubate at 30° C. for approximately 3 minutes. One hundred μls of pre-warmed protease (30° C.) in assay buffer, was then used to initiate the reaction to produce a final concentration of 1.3 nM HCV). The Substrate cleavage by the protease was monitored over 60 minutes by measuring the release of the phenylazophenol (PAP) product at an absorbance of 370 nm with a continuous read every 30 seconds using a SpectraMax Plus microtiter plate reader (Molecular Devices, Sunnyvale, Calif.). Background hydrolysis of the substrate was subtracted. Inhibitors were tested over a range of concentrations (final DMSO concentration 4%)
Evaluation of Inhibitors The inhibition constants (Ki) for the competitive inhibitors were determined experimentally at fixed concentrations of enzyme and substrate by plotting vo/vi vs. inhibitor concentration ([I]o) according to the rearranged Michaelis-Menten equation for competitive inhibition kinetics: vo/vi=1+[I]o/(Ki(1+[S]o/Km)), where vo is the uninhibited initial velocity, vi is the initial velocity in the presence of inhibitor at any given inhibitor concentration ([I]o) and [S]o is the substrate concentration used. The resulting data were fitted using linear regression and the resulting slope, 1/(Ki(1+[S]o/Km), was used to calculate the Ki value.

T1 sequence (P26663 1013-1207, looked up, natural form): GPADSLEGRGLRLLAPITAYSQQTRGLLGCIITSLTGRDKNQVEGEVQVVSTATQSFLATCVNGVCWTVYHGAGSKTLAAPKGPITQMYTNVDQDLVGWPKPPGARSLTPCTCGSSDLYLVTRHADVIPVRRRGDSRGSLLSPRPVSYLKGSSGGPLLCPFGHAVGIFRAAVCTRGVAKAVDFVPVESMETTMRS

Compound | pKi
CC(C)[C@H](NC(=O)N[C@H](C(=O)N1C[C@H]2[C@@H]([C@H]1C(=O)N[C@@H](CC(F)F)C(=O)NCCc1ccc(C(N)=O)cc1)C2(C)C)C(C)(C)C)C(=O)O [Example 124] | 6.30 to 7.00
COC(=O)c1ccc(CCNC(=O)[C@H](CC(F)F)NC(=O)[C@@H]2[C@@H]3[C@H](CN2C(=O)[C@@H](NC(=O)OC(C)(C)C)C(C)(C)C)C3(C)C)cc1 [Example 148] | < 6.30
CC(C)[C@H](NC(=O)N[C@H](C(=O)N1C[C@H]2[C@@H]([C@H]1C(=O)NC(CC(F)F)C(=O)NCCc1ccccc1)C2(C)C)C(C)(C)C)C(=O)OC(C)(C)C (some centres unmarked) [Example 140] | 6.30 to 7.00
CC(C)[C@H](NC(=O)N[C@H](C(=O)N1C[C@H]2[C@@H]([C@H]1C(=O)NC(CC(F)F)C(=O)O)C2(C)C)C(C)(C)C)C(=O)OC(C)(C)C (some centres unmarked) [Example 159] | < 6.30
CC1(C)C[C@H]2[C@H](CN(C(=O)[C@@H](NC(=O)OCc3ccccc3)C3CCCCC3)[C@@H]2C(=O)N[C@@H](CC(F)F)C(=O)O)O1 [Example 161] | < 6.30
COC(=O)[C@H](CC(F)F)NC(=O)[C@@H]1[C@H]2CC(C)(C)O[C@H]2CN1C(=O)[C@@H](NC(=O)OCc1ccccc1)C1CCCCC1 [Example 170] | < 6.30
CC(C)[C@H](NC(=O)N[C@H](C(=O)N1C[C@H]2[C@@H]([C@H]1C(=O)NC(CC(F)F)C(=O)NCCc1ccc(C(=O)O)cc1)C2(C)C)C(C)(C)C)C(=O)OC(C)(C)C (some centres unmarked) [Example 129] | 6.30 to 7.00
CC(C)[C@H](NC(=O)N[C@H](C(=O)N1C[C@H]2[C@@H]([C@H]1C(=O)N[C@@H](CC(F)F)C(=O)NCCC(=O)O)C2(C)C)C(C)(C)C)C(=O)O [Example 160] | < 6.30
COC(=O)c1ccc(CCNC(=O)[C@H](CC(F)F)NC(=O)[C@@H]2[C@H]3CC(C)(C)O[C@H]3CN2C(=O)[C@@H](NC(=O)N[C@H](C(=O)OC(C)(C)C)C(C)C)C2CCCCC2)cc1 [Example 154] | < 6.30

same assay, conditions: Ki, Table 1; single chain NS4A21-32-GSGS-NS3 3-181 protease, 30° C., pH 6.5

Compound | pKi
CC(C)(C)[C@H](NC(=O)N[C@H](C(=O)N1C[C@H]2[C@@H]([C@H]1C(=O)N[C@@H](CC(F)F)C(=O)NCCc1ccc(C(=O)O)cc1)C2(C)C)C(C)(C)C)C(=O)O [Example 114] | 7.05
CN(C[C@@H](NC(=O)N[C@H](C(=O)N1C[C@H]2[C@@H](C1C(=O)N[C@@H](CC(F)F)C(=O)NCCc1ccc(C(N)=O)cc1)C2(C)C)C(C)(C)C)C(C)(C)C)S(C)(=O)=O (some centres unmarked) [Example 106] | 7.57

same assay, conditions: Ki, Table 3; rating; single chain NS4A21-32-GSGS-NS3 3-181 protease, 30° C., pH 6.5

Compound | pKi
COc1ccc(CCNC(=O)[C@H](CC(F)F)NC(=O)[C@@H]2[C@@H]3[C@H](CN2C(=O)[C@@H](NC(=O)N[C@H](CN(C)S(C)(=O)=O)C(C)(C)C)C(C)(C)C)C3(C)C)cc1Cl [Example 281] | > 7.00
CN(C[C@@H](NC(=O)N[C@H](C(=O)N1C[C@H]2[C@@H]([C@H]1C(=O)N[C@@H](CC(F)F)C(=O)NCCCn1ccnc1)C2(C)C)C(C)(C)C)C(C)(C)C)S(C)(=O)=O [Example 239] | < 6.30
CC(CO)NC(=O)[C@H](CC(F)F)NC(=O)[C@@H]1[C@@H]2[C@H](CN1C(=O)[C@@H](NC(=O)N[C@H](CN(C)S(C)(=O)=O)C(C)(C)C)C(C)(C)C)C2(C)C (some centres unmarked) [Example 230] | < 6.30
CN(C[C@@H](NC(=O)N[C@H](C(=O)N1C[C@H]2[C@@H]([C@H]1C(=O)N[C@@H](CC(F)F)C(=O)NCCc1c(F)cccc1Cl)C2(C)C)C(C)(C)C)C(C)(C)C)S(C)(=O)=O [Example 275] | > 7.00
CN(C[C@@H](NC(=O)N[C@H](C(=O)N1C[C@H]2[C@@H]([C@H]1C(=O)N[C@@H](CC(F)F)C(=O)N[C@H](CO)Cc1ccccc1)C2(C)C)C(C)(C)C)C(C)(C)C)S(C)(=O)=O [Example 249] ({X1-CO}-[Tle][Pro(3R,4S-CMe2)][Abu(4,4-F2)][Phe(ol)]) | < 6.30
COc1ccc(OC)c(CCNC(=O)[C@H](CC(F)F)NC(=O)[C@@H]2[C@@H]3[C@H](CN2C(=O)[C@@H](NC(=O)N[C@H](CN(C)S(C)(=O)=O)C(C)(C)C)C(C)(C)C)C3(C)C)c1 [Example 279] | 6.30 to 7.00
CN(C[C@@H](NC(=O)N[C@H](C(=O)N1C[C@H]2[C@@H]([C@H]1C(=O)N[C@@H](CC(F)F)C(=O)NCCc1ccc(Cl)c(Cl)c1)C2(C)C)C(C)(C)C)C(C)(C)C)S(C)(=O)=O [Example 285] | > 7.00
CN(C[C@@H](NC(=O)N[C@H](C(=O)N1C[C@H]2[C@@H]([C@H]1C(=O)N[C@@H](CC(F)F)C(=O)NCCCN1CCCC1=O)C2(C)C)C(C)(C)C)C(C)(C)C)S(C)(=O)=O [Example 223] | < 6.30
CCOc1ccc(CCNC(=O)[C@H](CC(F)F)NC(=O)[C@@H]2[C@@H]3[C@H](CN2C(=O)[C@@H](NC(=O)N[C@H](CN(C)S(C)(=O)=O)C(C)(C)C)C(C)(C)C)C3(C)C)cc1OC [Example 287] | > 7.00
Cc1ccc(CCNC(=O)[C@H](CC(F)F)NC(=O)[C@@H]2[C@@H]3[C@H](CN2C(=O)[C@@H](NC(=O)N[C@H](CN(C)S(C)(=O)=O)C(C)(C)C)C(C)(C)C)C3(C)C)cc1C [Example 267] | > 7.00
CN(C[C@@H](NC(=O)N[C@H](C(=O)N1C[C@H]2[C@@H]([C@H]1C(=O)N[C@@H](CC(F)F)C(=O)N[C@H]1C[C@@H]1c1ccccc1)C2(C)C)C(C)(C)C)C(C)(C)C)S(C)(=O)=O [Example 293] | < 6.30
CCOCCCNC(=O)[C@H](CC(F)F)NC(=O)[C@@H]1[C@@H]2[C@H](CN1C(=O)[C@@H](NC(=O)N[C@H](CN(C)S(C)(=O)=O)C(C)(C)C)C(C)(C)C)C2(C)C [Example 211] | < 6.30
CN(C[C@@H](NC(=O)N[C@H](C(=O)N1C[C@H]2[C@@H]([C@H]1C(=O)N[C@@H](CC(F)F)C(=O)NCC(C)(C)C)C2(C)C)C(C)(C)C)C(C)(C)C)S(C)(=O)=O [Example 209] | < 6.30
CN(C[C@@H](NC(=O)N[C@H](C(=O)N1C[C@H]2[C@@H]([C@H]1C(=O)N[C@@H](CC(F)F)C(=O)NCCN1CCOCC1)C2(C)C)C(C)(C)C)C(C)(C)C)S(C)(=O)=O [Example 240] | < 6.30
CN(C[C@@H](NC(=O)N[C@H](C(=O)N1C[C@H]2[C@@H]([C@H]1C(=O)N[C@@H](CC(F)F)C(=O)NCCc1cccs1)C2(C)C)C(C)(C)C)C(C)(C)C)S(C)(=O)=O [Example 216] | > 7.00
CN(C[C@@H](NC(=O)N[C@H](C(=O)N1C[C@H]2[C@@H]([C@H]1C(=O)N[C@@H](CC(F)F)C(=O)NCCc1ccc(N)cc1)C2(C)C)C(C)(C)C)C(C)(C)C)S(C)(=O)=O [Example 262] | > 7.00
CN(C[C@@H](NC(=O)N[C@H](C(=O)N1C[C@H]2[C@@H]([C@H]1C(=O)N[C@@H](CC(F)F)C(=O)NCCc1ccccn1)C2(C)C)C(C)(C)C)C(C)(C)C)S(C)(=O)=O [Example 235] | 6.30 to 7.00
CN(C[C@@H](NC(=O)N[C@H](C(=O)N1C[C@H]2[C@@H]([C@H]1C(=O)N[C@@H](CC(F)F)C(=O)NCCc1ccc(Cl)cc1Cl)C2(C)C)C(C)(C)C)C(C)(C)C)S(C)(=O)=O [Example 283] | > 7.00
CN(C[C@@H](NC(=O)N[C@H](C(=O)N1C[C@H]2[C@@H]([C@H]1C(=O)N[C@@H](CC(F)F)C(=O)NCCc1ccc(F)cc1)C2(C)C)C(C)(C)C)C(C)(C)C)S(C)(=O)=O [Example 265] | > 7.00
CN(C[C@@H](NC(=O)N[C@H](C(=O)N1C[C@H]2[C@@H]([C@H]1C(=O)N[C@@H](CC(F)F)C(=O)NCc1cccs1)C2(C)C)C(C)(C)C)C(C)(C)C)S(C)(=O)=O [Example 212] | < 6.30

same assay, conditions: read-out: Ki Rating; Table 2; single chain NS4A21-32-GSGS-NS3 3-181 protease, 30° C., pH 6.5

Compound | pKi
COC(=O)c1ccc(CCNC(=O)[C@H](CC(F)F)NC(=O)[C@@H]2[C@@H]3[C@H](CN2C(=O)[C@@H](NC(=O)N[C@H](C(=O)OC(C)(C)C)C(C)C)C(C)(C)C)C3(C)C)cc1 [Example 137] | 6.30 to 7.00
